Experimental data reported in ChEMBL document CHEMBL2040759, “Design, synthesis and anticancer activity of nitric oxide donating/chalcone hybrids” (2012).

Experiments:
Type in all cases: functional
[1] = system: A549; assay: Growth inhibition of human A549/ATCC cells assessed as cell growth at 10^-5 M after 48 hrs by SRB assay; conditions: A549, 48 h, read-out: Activity
[2] = system: HOP-92; assay: Growth inhibition of human HOP92 cells assessed as cell growth at 10^-5 M after 48 hrs by SRB assay; conditions: HOP-92, 48 h, read-out: Activity
[3] = system: NCI-H226; assay: Growth inhibition of human NCI-H226 cells assessed as cell growth at 10^-5 M after 48 hrs by SRB assay; conditions: NCI-H226, 48 h, read-out: Activity
[4] = system: NCI-H460; assay: Growth inhibition of human NCI-H460 cells assessed as cell growth at 10^-5 M after 48 hrs by SRB assay; conditions: NCI-H460, 48 h, read-out: Activity
[5] = system: NCI-H522; assay: Growth inhibition of human NCI-H522 cells assessed as cell growth at 10^-5 M after 48 hrs by SRB assay; conditions: NCI-H522, 48 h, read-out: Activity
[6] = system: COLO 205; assay: Growth inhibition of human COLO205 cells assessed as cell growth at 10^-5 M after 48 hrs by SRB assay; conditions: COLO 205, 48 h, read-out: Activity
[7] = system: HCT-116; assay: Growth inhibition of human HCT116 cells assessed as cell growth at 10^-5 M after 48 hrs by SRB assay; conditions: HCT-116, 48 h, read-out: Activity
[8] = system: U-251; assay: Growth inhibition of human U251 cells assessed as cell growth at 10^-5 M after 48 hrs by SRB assay; conditions: U-251, 48 h, read-out: Activity
[9] = system: MDA-MB-435; assay: Growth inhibition of human MDA-MB-435 cells assessed as cell growth at 10^-5 M after 48 hrs by SRB assay; conditions: MDA-MB-435, 48 h, read-out: Activity
[10] = system: SK-MEL-2; assay: Growth inhibition of human SK-MEL-2 cells assessed as cell growth at 10^-5 M after 48 hrs by SRB assay; conditions: SK-MEL-2, 48 h, read-out: Activity
[11] = system: UACC-62; assay: Growth inhibition of human UACC62 cells assessed as cell growth at 10^-5 M after 48 hrs by SRB assay; conditions: UACC-62, 48 h, read-out: Activity
[12] = Growth inhibition of human NCI-ADR-RES cells assessed as cell growth at 10^-5 M after 48 hrs by SRB assay; conditions: read-out: Activity
[13] = system: 786-0; assay: Growth inhibition of human 786-0 cells assessed as cell growth at 10^-5 M after 48 hrs by SRB assay; conditions: 786-0, 48 h, read-out: Activity
[14] = system: RXF 393; assay: Growth inhibition of human RXF393 cells assessed as cell growth at 10^-5 M after 48 hrs by SRB assay; conditions: RXF 393, 48 h, read-out: Activity
[15] = system: MDA-MB-231; assay: Growth inhibition of human MDA-MB-231 cells assessed as cell growth at 10^-5 M after 48 hrs by SRB assay; conditions: MDA-MB-231, 48 h, read-out: Activity
[16] = Growth inhibition of human Hs 578T cells assessed as cell growth at 10^-5 M after 48 hrs by SRB assay; conditions: read-out: Activity
[17] = system: BT-549; assay: Growth inhibition of human BT549 cells assessed as cell growth at 10^-5 M after 48 hrs by SRB assay; conditions: BT-549, 48 h, read-out: Activity
[18] = system: MDA-MB-468; assay: Growth inhibition of human MDA-MB-468 cells assessed as cell growth at 10^-5 M after 48 hrs by SRB assay; conditions: MDA-MB-468, 48 h, read-out: Activity
[19] = system: HL-60(TB); assay: Growth inhibition of human HL-60(TB) cells after 48 hrs by SRB assay; conditions: HL-60, 48 h
[20] = system: K562; assay: Growth inhibition of human K562 cells after 48 hrs by SRB assay; conditions: K562, 48 h
[21] = Growth inhibition of human RPMI18226 cells after 48 hrs by SRB assay; conditions: RPMI18226, 48 h
[22] = system: EKVX; assay: Growth inhibition of human EKVX cells after 48 hrs by SRB assay
[23] = system: HOP-62; assay: Growth inhibition of human HOP62 cells after 48 hrs by SRB assay; conditions: HOP-62, 48 h
[24] = system: HOP-92; assay: Growth inhibition of human HOP92 cells after 48 hrs by SRB assay; conditions: HOP-92, 48 h
[25] = system: NCI-H226; assay: Growth inhibition of human NCI-H226 cells after 48 hrs by SRB assay; conditions: NCI-H226, 48 h
[26] = system: NCI-H460; assay: Growth inhibition of human NCI-H460 cells after 48 hrs by SRB assay; conditions: NCI-H460, 48 h
[27] = system: KM12; assay: Growth inhibition of human KM12 cells after 48 hrs by SRB assay; conditions: KM12, 48 h
[28] = system: SW-620; assay: Growth inhibition of human SW620 cells after 48 hrs by SRB assay; conditions: SW-620, 48 h
[29] = system: MDA-MB-435; assay: Growth inhibition of human MDA-MB-435 cells after 48 hrs by SRB assay; conditions: MDA-MB-435, 48 h
[30] = system: UACC-62; assay: Growth inhibition of human UACC62 cells after 48 hrs by SRB assay; conditions: UACC-62, 48 h
[31] = system: OVCAR-4; assay: Growth inhibition of human OVCAR4 cells after 48 hrs by SRB assay; conditions: OVCAR-4, 48 h
[32] = system: SK-OV-3; assay: Growth inhibition of human SKOV3 cells after 48 hrs by SRB assay; conditions: SK-OV-3, 48 h
[33] = system: CAKI-1; assay: Growth inhibition of human Caki1 cells after 48 hrs by SRB assay; conditions: CAKI-1, 48 h
[34] = system: TK-10; assay: Growth inhibition of human TK10 cells after 48 hrs by SRB assay; conditions: TK-10, 48 h
[35] = read-out: LC50 (the source's name)

`O=C(CO[N+](=O)[O-])Nc1ccc(C(=O)/C=C/c2ccc(Cl)cc2)cc1` showed a growth at 10 µM [1] of 67.6%, a growth at 10 µM [2] of 66.8% and a growth at 10 µM [3] of 81.7%. For the same compound, the growth at 10 µM [4] was 84.9%, the growth at 10 µM [5] was 38.7% and the growth at 10 µM [6] was 36.1%. The growth at 10 µM [7] was -49.2%, the growth at 10 µM [8] was 14.9% and the growth at 10 µM [9] was -2.76%. For the same compound, the growth at 10 µM [10] was 81.7%, the growth at 10 µM [11] was 49.2% and the growth at 10 µM [12] was 29.9%. It also gave a growth at 10 µM [13] of 75%, a growth at 10 µM [14] of 72.5% and a growth at 10 µM [15] of 55%. It also gave a growth at 10 µM [16] of 89.7%, a growth at 10 µM [17] of 18.9% and a growth at 10 µM [18] of 48.7%. For the same compound, the GI50 [19] was 3.59 µM, the TGI [19] was > 100 µM and the CC50 [19, 35] was > 100 µM. For the same compound, the GI50 [20] was 2.6 µM, the TGI [20] was > 100 µM and the CC50 [20, 35] was > 100 µM. The GI50 [21] was 1.41 µM, the TGI [21] was 8.36 µM and the CC50 [21, 35] was > 100 µM. For the same compound, the GI50 [22] was 15 µM, the TGI [22] was 74.6 µM and the CC50 [22, 35] was > 100 µM. It also gave a GI50 [23] of 3.11 µM, a TGI [23] of 9.73 µM and a CC50 [23, 35] of 34.6 µM. It also gave a GI50 [24] of 2.95 µM, a TGI [24] of 15.2 µM and a CC50 [24, 35] of 53.2 µM. For the same compound, the GI50 [25] was 5.15 µM, the TGI [25] was 29 µM and the CC50 [25, 35] was > 100 µM. The GI50 [26] was 12.7 µM, the TGI [26] was 54.9 µM and the CC50 [26, 35] was > 100 µM. The GI50 [27] was 1.54 µM, the TGI [27] was 3.1 µM and the CC50 [27, 35] was 6.23 µM. For the same compound, the GI50 [28] was 1.44 µM, the TGI [28] was 2.88 µM and the CC50 [28, 35] was 5.77 µM. It also gave a GI50 [29] of 2.96 µM, a TGI [29] of 11.2 µM and a CC50 [29, 35] of 59 µM. The GI50 [30] was 2.76 µM, the TGI [30] was 11 µM and the CC50 [30, 35] was 51.3 µM. For the same compound, the GI50 [31] was 4.06 µM, the TGI [31] was 21 µM and the CC50 [31, 35] was 76.5 µM. For the same compound, the GI50 [32] was 10.1 µM, the TGI [32] was 65.9 µM and the CC50 [32, 35] was > 100 µM. For the same compound, the GI50 [33] was 11.8 µM, the TGI [33] was 54.5 µM and the CC50 [33, 35] was > 100 µM. For the same compound, the GI50 [34] was 8.37 µM, the TGI [34] was 25.1 µM and the CC50 [34, 35] was 68.2 µM.
With `O=C(CO[N+](=O)[O-])Nc1ccc(C(=O)/C=C/c2ccc3c(c2)OCO3)cc1` the growth at 10 µM [1] was 88.9%, the growth at 10 µM [2] was 77.3% and the growth at 10 µM [3] was 107%. For the same compound, the growth at 10 µM [4] was 108%, the growth at 10 µM [5] was 97.6% and the growth at 10 µM [6] was 113%. It also gave a growth at 10 µM [7] of -5.9%, a growth at 10 µM [8] of 57.3% and a growth at 10 µM [9] of 62.6%. For the same compound, the growth at 10 µM [10] was 119%, the growth at 10 µM [11] was 96% and the growth at 10 µM [12] was 84.5%. It also gave a growth at 10 µM [13] of 109%, a growth at 10 µM [14] of 107% and a growth at 10 µM [15] of 87.4%. It also gave a growth at 10 µM [16] of 103%, a growth at 10 µM [17] of 87.6% and a growth at 10 µM [18] of 91.9%.
